Results reported in patent US11866720B2, “Transgenic or non-transgenic plants with mutated protoporphyrinogen oxidase having increased tolerance to herbicides” (priority 2013, dated 2024).
Where a chain is given by its changes, count along the chain named. Values joined by “and” are separate entries in the source; they are usually repeats but may differ in a detail not shown here. Equal entries are not always repeated.

Columns and labels:
Assay in all cases: biochemical
[1] = biological target: T1, recombinant wildtype and mutated PPO (Amaranthus PPO2: PPX2L_WC SEQ ID NO 2, PPX2L_AC SEQ ID NO 4, dG210 SEQ ID NO 6 & 8) (Amaranthus tuberculatus, UniProt Q0NZW9, D133A/F420V/R128I); conditions: IC50 (M)
T1 sequence (Q0NZW9 1-534 R128I/D133A/F420V): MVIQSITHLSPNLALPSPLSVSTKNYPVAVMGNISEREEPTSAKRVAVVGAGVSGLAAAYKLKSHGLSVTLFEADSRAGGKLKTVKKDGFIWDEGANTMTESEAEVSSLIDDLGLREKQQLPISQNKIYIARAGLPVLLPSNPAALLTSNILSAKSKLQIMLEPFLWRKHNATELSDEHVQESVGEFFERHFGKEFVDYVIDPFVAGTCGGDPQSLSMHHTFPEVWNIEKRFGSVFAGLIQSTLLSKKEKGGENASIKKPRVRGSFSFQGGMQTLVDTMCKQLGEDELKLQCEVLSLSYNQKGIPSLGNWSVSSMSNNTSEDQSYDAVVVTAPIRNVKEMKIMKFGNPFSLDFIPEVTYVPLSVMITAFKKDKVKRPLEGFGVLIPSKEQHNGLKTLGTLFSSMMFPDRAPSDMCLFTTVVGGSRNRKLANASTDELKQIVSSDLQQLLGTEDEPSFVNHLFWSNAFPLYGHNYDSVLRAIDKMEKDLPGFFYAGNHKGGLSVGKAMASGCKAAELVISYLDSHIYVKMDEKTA

[2] = biological target: recombinant wildtype and mutated PPO (Amaranthus PPO2: PPX2L_WC SEQ ID NO 2, PPX2L_AC SEQ ID NO 4, dG210 SEQ ID NO 6 & 8) (Amaranthus tuberculatus, UniProt Q0NZW9, D133A/F420M/R128S); conditions: IC50 (M)
Sequence of recombinant wildtype and mutated PPO (Amaranthus PPO2: PPX2L_WC SEQ ID NO 2, PPX2L_AC SEQ ID NO 4, dG210 SEQ ID NO 6 & 8) (Amaranthus tuberculatus, UniProt Q0NZW9, D133A/F420M/R128S) (Q0NZW9 1-534 R128S/D133A/F420M): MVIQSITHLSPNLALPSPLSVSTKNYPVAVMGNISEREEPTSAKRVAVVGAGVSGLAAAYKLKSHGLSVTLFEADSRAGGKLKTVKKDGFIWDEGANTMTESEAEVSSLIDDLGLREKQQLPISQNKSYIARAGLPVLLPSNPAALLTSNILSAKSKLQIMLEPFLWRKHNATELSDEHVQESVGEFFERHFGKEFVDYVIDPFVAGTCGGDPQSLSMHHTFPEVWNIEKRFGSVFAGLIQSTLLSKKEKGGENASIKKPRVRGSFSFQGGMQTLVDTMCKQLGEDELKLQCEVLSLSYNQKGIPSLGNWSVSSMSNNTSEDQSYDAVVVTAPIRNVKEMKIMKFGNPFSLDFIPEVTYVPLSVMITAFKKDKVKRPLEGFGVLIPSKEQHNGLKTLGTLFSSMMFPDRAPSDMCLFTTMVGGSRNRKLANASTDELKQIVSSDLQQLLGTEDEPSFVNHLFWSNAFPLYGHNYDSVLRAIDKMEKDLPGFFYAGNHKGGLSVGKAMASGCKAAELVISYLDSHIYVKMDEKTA

[3] = biological target: recombinant wildtype and mutated PPO (Amaranthus PPO2: PPX2L_WC SEQ ID NO 2, PPX2L_AC SEQ ID NO 4, dG210 SEQ ID NO 6 & 8) (Amaranthus tuberculatus, UniProt Q0NZW9, D133A/F420M/R128V); conditions: IC50 (M)
Sequence of recombinant wildtype and mutated PPO (Amaranthus PPO2: PPX2L_WC SEQ ID NO 2, PPX2L_AC SEQ ID NO 4, dG210 SEQ ID NO 6 & 8) (Amaranthus tuberculatus, UniProt Q0NZW9, D133A/F420M/R128V) (Q0NZW9 1-534 R128V/D133A/F420M): as the sequence (Q0NZW9 1-534 R128S/D133A/F420M) above, with S128V counted along it

[4] = biological target: T2, recombinant wildtype and mutated PPO (Amaranthus PPO2: PPX2L_WC SEQ ID NO 2, PPX2L_AC SEQ ID NO 4, dG210 SEQ ID NO 6 & 8) (Amaranthus tuberculatus, UniProt Q0NZW9, D133A/F420M/R128Y); conditions: IC50 (M)
T2 sequence (Q0NZW9 1-534 R128Y/D133A/F420M): T1 sequence (Q0NZW9 1-534 R128I/D133A/F420V) with I128Y, V420M

[5] = biological target: recombinant wildtype and mutated PPO (Amaranthus PPO2: PPX2L_WC SEQ ID NO 2, PPX2L_AC SEQ ID NO 4, dG210 SEQ ID NO 6 & 8) (Amaranthus tuberculatus, UniProt Q0NZW9, D133A/F420L/R128C); conditions: IC50 (M)
Sequence of recombinant wildtype and mutated PPO (Amaranthus PPO2: PPX2L_WC SEQ ID NO 2, PPX2L_AC SEQ ID NO 4, dG210 SEQ ID NO 6 & 8) (Amaranthus tuberculatus, UniProt Q0NZW9, D133A/F420L/R128C) (Q0NZW9 1-534 R128C/D133A/F420L): as the sequence (Q0NZW9 1-534 R128S/D133A/F420M) above, with S128C, M420L counted along it

[6] = biological target: T3, recombinant wildtype and mutated PPO (Amaranthus PPO2: PPX2L_WC SEQ ID NO 2, PPX2L_AC SEQ ID NO 4, dG210 SEQ ID NO 6 & 8) (Amaranthus tuberculatus, UniProt Q0NZW9)
T3 sequence (Q0NZW9 1-534): T1 sequence (Q0NZW9 1-534 R128I/D133A/F420V) with I128R, A133D, V420F

[7] = biological target: T4, recombinant wildtype and mutated PPO (Amaranthus PPO2: PPX2L_WC SEQ ID NO 2, PPX2L_AC SEQ ID NO 4, dG210 SEQ ID NO 6 & 8) (Amaranthus tuberculatus, UniProt Q0NZW9, R128A/F420M, form not given)
T4 sequence (Q0NZW9 1-534 R128A/F420M): T1 sequence (Q0NZW9 1-534 R128I/D133A/F420V) with I128A, A133D, V420M

| Compound | IC50 [1] | IC50 [2] [M] | IC50 [3] | IC50 [4] | IC50 [5] | IC50 [6] [nM] | IC50 [7] [nM] |
| --- | --- | --- | --- | --- | --- | --- | --- |
| C#CCN1C(=O)C(F)(F)Oc2cc(F)c(-n3c(=O)n(C)c(=S)n(C)c3=O)cc21 | 2.14e-07 M and 3.15e-07 M | 2.4e-08 | 6.5e-08 M and 4.86e-08 M | 2.85e-07 M and 1.02e-07 M | 1e-07 M and 1.83e-07 M | – | – |
| C#CCN1C(=O)C(F)(F)Oc2cc(F)c(-n3c(=O)cc(C(F)(F)F)n(C)c3=O)cc21 | 9.01e-08 M | – | 4.65e-08 M | 1.13e-07 M | 6.72e-08 M | 0.315 | 2.56 |
| C#CCN1C(=O)C(F)(F)Oc2cc(F)c(N3C(=O)C4=C(CCCC4)C3=O)cc21 | 4.32e-06 M | – | 3.11e-06 M | ≥ 1e-05 M | ≥ 1e-05 M | 0.146 | 641 |
| COC(Oc1ccccc1Oc1cc(-n2c(=O)cc(C(F)(F)F)n(C)c2=O)c(F)cc1Cl)C(=O)OC1CCCCC1 (stereo not drawn) | 3.78e-08 M | 5.24e-08 | 1.49e-08 M | – | – | – | – |
| COC(=O)C(OC)Oc1ccccc1Oc1cc(-n2c(=O)cc(C(F)(F)F)n(C)c2=O)c(F)cc1Cl (stereo not drawn) | 1.71e-08 M | 3.62e-08 | 1.49e-08 M | – | – | 0.411 | – |
| CCOC(=O)COc1ncccc1Oc1cc(-n2c(=O)cc(C(F)(F)F)n(C)c2=O)c(F)cc1Cl [A.13, ethyl [3-[2-chloro-4-fluoro-5-(1-methyl-6-trifluoromethyl-2,4-dioxo-1,2,3,4-tetrahydropyrimidin-3-yl)phenoxy]-2-pyridyloxy]acetate] | 4.38e-08 M | – | 3.58e-08 M | 8.92e-08 M | 6.81e-07 M | – | – |
| O=C(O)c1cc(Oc2ccc(C(F)(F)F)cc2Cl)ccc1[N+](=O)[O-] [ACIFLUORFEN] | 1.21e-05 M | – | ≥ 1e-05 M | ≥ 1e-05 M | ≥ 1e-05 M | – | – |
| C=CCOC(=O)C(C)(C)OC(=O)c1cc(-n2c(=O)cc(C(F)(F)F)n(C)c2=O)ccc1Cl [BUTAFENACIL] | 2.56e-08 M | – | 1.05e-08 M | 5.04e-08 M | 1.1e-07 M | – | – |
| CCOC(=O)C(Cl)Cc1cc(-n2nc(C)n(C(F)F)c2=O)c(F)cc1Cl (stereo not drawn) [CARFENTRAZONE-ETHYL] | 2.07e-07 M | – | 2.29e-08 M | 8.52e-08 M | 3.08e-07 M | – | – |
| C#CCN1C(=O)COc2cc(F)c(N3C(=O)C4=C(CCCC4)C3=O)cc21 [Flumioxazin, flumioxazin] | ≥ 1e-05 M | – | ≥ 1e-05 M | ≥ 1e-05 M | ≥ 1e-05 M | – | 8430 |
| CS(=O)(=O)NC(=O)c1cc(Oc2ccc(C(F)(F)F)cc2Cl)ccc1[N+](=O)[O-] [Fomesafen, fomesafen] | 2.79e-06 M | – | ≥ 1e-05 M | ≥ 1e-05 M | ≥ 1e-05 M | – | – |
| CCOC(=O)C(C)OC(=O)c1cc(Oc2ccc(C(F)(F)F)cc2Cl)ccc1[N+](=O)[O-] (stereo not drawn) [Lactofen, lactofen] | 1.4e-08 M | – | 9.41e-08 M | 1.43e-07 M | 1.42e-07 M | – | – |
| CCOc1cc(Oc2ccc(C(F)(F)F)cc2Cl)ccc1[N+](=O)[O-] [OXIFLUORFEN] | 1.98e-07 M | – | 1.05e-06 M | 1.13e-06 M | 1.49e-06 M | – | – |
